Laboratory results as given in patent US20110028401A1, “CRIPTO BLOCKING MOLECULES AND THERAPEUTIC USES THEREOF” (CONSIGLIO NAZIONALE DELLE RICERCHE, priority 2009, published 2011).

Legend:
Parkinsonian rats [1] = assay: Tumor formation after ESC transplantation into striatum of 6-OHDA lesioned rats; assay type: in vivo, rat
From the text: Thirty-seven adult male Sprague Dawley rats (250-350 g; from ARC, Australia) were housed and treated according to the guidelines of the Australian and Howard Florey Institute animal ethics committee (07-030). Animals received unilateral stereotaxic injections of 6-OHDA into the substantia nigra pars compacta (SNpc) to create a complete lesion of the midbrain DA neurons, as previously described^29. Lesioned animals were selected for transplantation based on their response to amphetamine induced rotational behaviour as previously described^29. Animals making greater than 6 rotations/min (lesion greater than 80%) were selected for grafting.
(§1) Two days prior to grafting animals began cyclosporine-A immune suppression (10 mg/kg). Fourteen days post-lesioning selected animals (determined by behavioural rotations) were again anesthetized and stereotaxically injected with 1 μl of cell suspension at each of the 4 sites as previously described^29. Stereotaxic coordinates of 1st & 2nd Injection (from bregma): anterior 0.2 mm, lateral 3.0 mm, ventral 4.5 and 5.0 mm; 3rd & 4th Injection, anterior 1.0 mm, lateral 2.5 mm, ventral 4.5 and 5.0 mm; incisor bar 0 mm^57). ESCs were differentiated as outlined in FIG. 7a. In brief, ESC colonies were dissected away from the stromal feeder layer and dissociated using collagenase/dispase with agitation (700 μg/ml, Roche, for 20 min, 80 rpm). Cells were subsequently resuspended at a density of 3,000 cells/μl ready for grafting. Five rats received Sham injections (4 μl N2 media, 1 μl/site), 16 rats received a total of 12,000 ESCs (4×1 μl grafts) pre-treated with the Control peptide (of which 9 of these animals also received infusion of the Control peptide) and a further 16 rats received grafts pretreated with the Cripto blocking peptide (9 animals receiving infusion of the Cripto BP).
The peptide infusion was performed by implantation of a cannula into the striatum (Alzet brain infusion kit) connected to a subcutaneously placed osmotic minipump (Alzet) prefilled with either CP or Cripto BP. Implantation was performed at the same time as the cell grafting. Cannula coordinates: anterior 0.5 mm, lateral 1.5 mm, ventral 5.0 mm; incisor bar 0 mm^57. The osmotic pump was capable of continuously delivering the peptide over a 3 weeks period (75 μM, 0.25 μl/hr) upon which time the animals were briefly anaesthetized with isoflurane and the pump removed through a small incision over the scapular region.
Eight weeks post grafting, rats were killed by an overdose of sodium pentobarbital (100 mg kg^−1 i.p.) and intracardially perfused as previously described^29. Brains were removed, post fixed for 1 hour, and then left overnight at 4° C. in 20% sucrose in PBS. The following day, 20 μm-thick coronal sections were cut serially through the striatum (12 series) and 50 μm through the SNpc and mounted directly onto chrome alum [K2Cr(SO4)2.12H2O] gelatinized slides.
One series of slides containing grafted striata was counterstained using 1% Neutral red to visualise the graft/tumor size and the gross morphology of the striatum.
Labeling was visualized by light or fluorescent illumination using an inverted microscope (DMIRB, Leica Microsystems, Wetzelar, Del., http://www.leica-microsystems.com) or upright microscope (Leica DMLB2). Images were acquired on a DC 350 FX camera (Leica). Area of grafts and tumors was calculated using Stereo Investigator software (MicroBrightField, Vt., USA).

wild-type EBs = assay: Cardiomyogenesis (beating areas) in wild-type embryoid bodies; assay type: cell-based, mouse
Protocol: Undifferentiated ESCs were cultured as previously described^55.
Given the neutralizing activity of the peptide, the authors then asked whether Cripto BP was able to block ALK-4/Smad2-dependent Cripto signalling in ESCs and thereby mimic the absence of cripto in an ESC differentiation assay. The authors first evaluated whether Cripto BP was able to prevent Cripto-induced Smad2 phosphorylation of serum starved 2 day-old cripto^−/− Embryoid Bodies (EBs), as assessed by Western blot analysis. Recombinant soluble Cripto protein stimulated Smad2 phosphorylation^35. This effect was not modified by the presence of increasing amounts of either Cripto DP or CP (2.5 μM and 25 μM) (FIG. 6a). […] The authors thus asked whether the neutralizing activity of Cripto BP on endogenous Cripto signalling was also able to block cardiomyogenesis in wild-type ESCs. To this end, 2 day-old wild-type EBs were treated with increasing amounts of either CP or Cripto BP, ranging from 5.0 to 25 μM, and the percentage of EBs containing beating areas was scored from days 8 to 12 of the differentiation (n=˜60 EBs/group; FIG. 6b). Given that the peptides were dissolved in DMSO, control untreated EBs were compared with DMSO treated EBs.

Parkinsonian rats [2] = assay: TH-ir neuron counts within striatal grafts; assay type: in vivo, rat; conditions: tumor-free animals
Protocol: as §1
The peptide infusion was performed by implantation of a cannula into the striatum (Alzet brain infusion kit) connected to a subcutaneously placed osmotic minipump (Alzet) prefilled with either CP or Cripto BP. […]

C[S+]([O-])CCC(N)C(=O)N[C@@H](CSCc1ccccc1)C(=O)N[C@@H](CSCc1ccccc1)C(=O)N[C@@H](CCCCNC(=O)[C@H](CSCc1ccccc1)NC(=O)[C@H](CSCc1ccccc1)NC(=O)[C@@H](N)CC[S+](C)[O-])C(=O)N[C@@H](CCCCNC(=O)[C@H](CCCCNC(=O)[C@H](CSCc1ccccc1)NC(=O)[C@H](CSCc1ccccc1)NC(=O)[C@@H](N)CC[S+](C)[O-])NC(=O)[C@H](CSCc1ccccc1)NC(=O)[C@H](CSCc1ccccc1)NC(=O)[C@@H](N)CC[S+](C)[O-])C(=O)NCC(=O)O (stereo partly shown) [Cripto BP] was tested, and the tumor volume (Parkinsonian rats [1]; ESCs pre-treated with peptide + peptide infusion) was 0.79 um^3×10^10, the “tumor formation (rats with tumors)” value (Parkinsonian rats [1]; ESCs pre-treated with peptide, no infusion, 8 weeks) was 42% and the tumor volume (Parkinsonian rats [1]; ESCs pre-treated with peptide, no infusion, Mean±SEM) was 1.09 um^3×10^10. The “further reduction of tumor incidence by continual infusion into the striatum” value (Parkinsonian rats [1]; pre-treated ESCs + peptide infusion (75 μM, 0.25 μl/hr, 3 weeks)) was 9%, the “animals with grafts without proliferating or undifferentiated cells” value (Parkinsonian rats [1]; range over pre-treatment without and with infusion) was 58-67% and the “reduction of tumor formation compared to control peptide” value (Parkinsonian rats [1]; rat, in vivo) was “more than 50%”. For the same compound, the “rhythmically contracting (beating) EBs” value (wild-type EBs; 25 μM peptide, wild-type EBs, mean±SD) was 3.7%±3.5, the “effect on the percentage of beating EBs (cardiomyogenesis)” value (wild-type EBs; 5.0 to 25 μM, scored days 8 to 12) was “dose-dependent inhibition of cardiomyogenesis” and the “TH+ cell counts within the graft” value (Parkinsonian rats [2]; pre-treated ESCs + peptide infusion) was 10815±887. For the same compound, the “TH+ cells within the graft” value (Parkinsonian rats [2]; pre-treated ESCs without infusion) was 7491±1488.
